According to article PMC9445589, “Apolipoprotein E mimetic peptide COG1410 combats pandrug-resistant Acinetobacter baumannii” (Frontiers in Microbiology, 2022):
Values after ≈ are worked out from the molar mass of the structure shown. Values joined by “and” are separate entries in the source; they are usually repeats but may differ in a detail not shown here. Equal values may be shown once. Read-outs that look alike come from different tables or passages of the source.

Columns and labels:
[1] = test system: PDR Acinetobacter baumannii YQ4; experiment: microbe, parasite or virus in culture; type: cell-based
Experimental: Strain stocks were maintained at −80°C in 10% glycerol. Bacteria were streaked on fresh plates before each experiment. Most of them were cultured in LB broth containing 10 g/L NaCl at 37°C, except for Mycobacteria in 7H9 broth and Enterococcus in BHI broth. Porphyromonas gingivalis was cultured in BHI broth supplemented with 1 μg/ml vitamin k1, 5 μg/ml hemin, and 5 mg/ml L-cysteine hydrochloride at 37°C in the anaerobic chamber. The minimal inhibitory concentrations (MICs) of antimicrobials were determined using the microdilution method in the corresponding broth.
The pandrug-resistant A. baumannii YQ4 was collected from the clinical laboratory of the second hospital in Nanjing. The complete genome was sequenced by Nanopore, and the data were deposited in the GenBank with accession number CP053033.

[2] = test system: PDR A. baumannii strain YQ4; experiment: checkerboard synergy, fractional inhibitory concentration (FIC); type: cell-based, Acinetobacter baumannii; details: checkerboard method, 37°C, 20 h, two independent experiments
[3] = test system: Escherichia coli; details: cited from earlier work
Excerpt: (§1) Supplement Table_1.DOCX, table 1: Table S1. Antibacterial effect of ApoE-derived peptides. | column: MIC (μM) || However, the current pipeline of novel antibiotic development is stagnant, which could not keep pace with these evolving pathogens. The pharmaceutical field turns to seek non-conventional anti-infective agents. The antimicrobial peptides (AMPs) have drawn a lot of attention as novel chemotherapeutic candidates because of their unique mechanisms of action (Mahlapuu et al., [2016]). It is known that the sources of AMPs are diverse, ranging from prokaryotes to humans (Zhang and Gallo, [2016]). One of the most promising AMPs is the protein mimetic peptide, which originates from a functional protei ...

[4] = test system: Pseudomonas aeruginosa; details: cited from earlier work
Excerpt: as §1

[5] = test system: Staphylococcus aureus; details: cited from earlier work
Excerpt: (§2) Supplement Table_1.DOCX, table 1: Table S1. Antibacterial effect of ApoE-derived peptides. | column: MIC (μM)

[6] = test system: Acinetobacter baumannii; details: ref (1); cited from earlier work
Excerpt: as §1

[7] = test system: Enterococcus faecium; details: ref (1); cited from earlier work
Excerpt: as §2

[8] = test system: Klebsiella pneumoniae; details: cited from earlier work
Excerpt: as §2

[9] = test system: A. baumannii; details: ref De Breij et al., [2018], cited from earlier work
Experimental: The major challenge for the therapeutic application of AMP is the degradation or inactivation in plasma (Dijksteel et al., [2021]). The bactericidal efficacy of COG1410 was further assessed in plasma. The LC99.9 values of COG1410 in PBS and 50% pooled plasma were 1.4 and 5.6 μM, respectively. This was even better than LL-37-derived AMP, SAAP-148, of which the corresponding LC99.9 values were 1.6 and 12.8 μM, against A. baumannii, respectively (De Breij et al., [2018]).

[10] = test system: A. baumannii YQ4; experiment: scanning electron microscopy (SEM) of treated cells; type: cell-based, Acinetobacter baumannii
Experimental: The log-phase culture of A. baumannii YQ4 was prepared as described above, harvested, and washed once with PBS. The pellets were suspended in PBS supplemented with 1 × COG1410 (16 μg/ml) or 1 × polymyxin B (16 μg/ml) and incubated at 37°C for 30 min. The untreated culture was used as a positive control to observe the morphology of the intact cell. […] After washing three times with PBS, the cells were post-fixed in 1% osmium at 4 °C for 1 h. After washing in distilled water for 1 h, the bacteria were dehydrated in the ascending concentrations of ethanol. Finally, these samples were transferred to ThermoFisher Quattro SEM for image collection after tert-butanol freeze-drying and sputter coating.

[11] = test system: A. baumannii YQ4; experiment: Live/Dead BacLight SYTO-9/PI staining, confocal microscopy; type: cell-based, Acinetobacter baumannii
Experimental: The damage to the cytoplasmic membrane was determined as described previously (Farkas et al., [2017]), with the Live/Dead BacLight bacterial viability kit (Invitrogen L7012). The log-phase culture of A. baumannii YQ4 was washed two times and suspended in PBS with the final OD600 of 0.1. […] Then, the cells were stained with 7.5 μM SYTO-9 and 30 μM propidium iodide (PI) in dark for 15 min. In total, 5 μl of culture was spotted on a clean slide coated with a thin layer of 1% agarose. The fluorescence was observed by Olympus FV3000 confocal laser scanning microscope. For SYTO-9, the excitation and emission were 483 and 503 nm, respectively. For PI, the excitation and emission were 493 and 636 nm, respectively.

[12] = test system: A. baumannii YQ4; experiment: ATP leak assay; type: cell-based, Acinetobacter baumannii; details: 16 μg/ml COG1410, 16 μg/ml polymyxin B or 32 μg/ml tigecycline (1× MIC), PBS, 37°C, 30 min
Experimental: ATP leak assay was performed using the Enhanced ATP Assay Kit of Beyotime ([…]) according to the manufacturer's manual. […] The supernatant was harvested and used for the measurement of ATP levels. In total, 100 μl of supernatant was mixed with 100 μl of working solution, and the chemiluminescence was measured by using a Biotek Synergy H1 plate reader. The untreated sample was set as a negative control. The experiments were performed in triplicate.

[13] = test system: A. baumanii YQ4; experiment: induction of resistance through serial passage; details: sub-MIC exposure, 55 passages
[14] = test system: A. baumannii YQ4; experiment: transmission electron microscopy (TEM) of treated cells
[15] = Acinetobacter baumannii, Table 2, agent alone, PDR A. baumannii strain YQ4, unit not in the table, μg/ml, read-out: MIC

NCC[C@H](O)C(=O)N[C@@H]1C[C@H](N)[C@@H](O[C@H]2O[C@H](CN)[C@@H](O)[C@H](O)[C@H]2O)[C@H](O)[C@H]1O[C@H]1O[C@H](CO)[C@@H](O)[C@H](N)[C@H]1O [AMI, amikacin]
MIC [1, 15]: > 1020 µg/mL
FIC with COG1410 [2]: >1

CC(C)(O/N=C(\C(=O)N[C@@H]1C(=O)N2C(C(=O)[O-])=C(C[n+]3ccccc3)CS[C@H]12)c1csc(N)n1)C(=O)O [CAZ, ceftazidime]
MIC ([1]; Acinetobacter baumannii): 512 µg/mL (≈ 937 µM)
FIC with COG1410 [2]: 0.31

O=C(O)c1cn(C2CC2)c2cc(N3CCNCC3)c(F)cc2c1=O [CIP, ciprofloxacin]
MIC ([1]; Acinetobacter baumannii): 256 µg/mL (≈ 773 µM)
FIC with COG1410 [2]: 0.8

C[C@@H](O)[C@H]1C(=O)N2C(C(=O)O)=C(S[C@@H]3CN[C@H](C(=O)N(C)C)C3)[C@H](C)[C@H]12 [MERO, meropenem]
MIC [1, 15]: 32 µg/mL (≈ 83.4 µM)
FIC with COG1410 [2]: 0.56

CN(C)[C@@H]1C(O)=C(C(N)=O)C(=O)[C@@]2(O)C(O)=C3C(=O)c4c(O)cccc4[C@@](C)(O)[C@H]3C[C@@H]12 [TET, tetracycline]
MIC [1, 15]: 1020 µg/mL (≈ 2300 µM)
FIC with COG1410 [2]: 0.31

CN(C)c1cc(NC(=O)CNC(C)(C)C)c(O)c2c1C[C@H]1C[C@H]3[C@H](N(C)C)C(O)=C(C(N)=O)C(=O)[C@@]3(O)C(O)=C1C2=O [TGC, tigecycline]
MIC [1, 15]: 32 µg/mL (≈ 54.6 µM)
FIC with COG1410 [2]: 1.06

ApoE130−162: fragment containing the receptor-binding domain of ApoE (130–162) (TEELRVRLASHLRKLRKRLLRDADDLQKRLAVY; UniProt P02649 148-180, looked up, fragment)
antibacterial activity, in words ([3]; ref Azuma et al., [2000]): active
antibacterial activity, in words ([4]; compared with Escherichia coli, ref Azuma et al., [2000]): to a lesser extent

LRKLRKRLL [ApoE141-149, ApoE-derived peptide, location 141-149]
MIC, Pa ([4]; ref (3)): 30 µM
MIC, Sa ([5]; ref (3)): void (“void” indicates that the MIC is more than 100 μM)

LRKLRKRLLLRKLRKRLL [ApoEp, ApoE-derived peptide, locations 141-149+141-149]
MIC, Pa ([4]; ref (1, 3)): 5 µM
MIC, Sa ([5]; ref (1, 3)): 35 µM

LRKLRKRLVRLASHLRKLRKRLL [ApoE23, ApoE-derived peptide, locations 141-148+135-149]
MIC, Ab [6]: 2 µM and 2.0 µM
MIC, Ec ([3]; ref (1)): 2.0 µM
MIC, Pa ([4]; ref (1)): 2.7 µM
MIC, Ef [7]: void (“void” indicates that the MIC is more than 100 μM)
MIC, Sa ([5]; ref (1)): 5.4 µM

LRVRLASHLRKLRKRLL [COG133, ApoE-derived peptide, 133–149 of ApoE]
MIC, Pa ([4]; ref (5)): 25/50
MIC, Kp ([8]; ref (5)): 3.12 µM
MIC, Sa ([5]; ref (5)): void (“void” indicates that the MIC is more than 100 μM)

LRVRLASHLRKLRKRLLR [sApoE133-150, ApoE-derived peptide, location 133-150]
MIC, Pa ([4]; ref (5)): 25/50
MIC, Kp ([8]; ref (5)): 6.25 µM
MIC, Sa ([5]; ref (5)): 3.12 µM

LRVRLASHLRKLRKRLLRDADDLQKRLAVY [ApoE30, ApoE-derived peptide, location 133-162]
MIC, Ec ([3]; ref (2)): 1.3 µM
MIC, Pa ([4]; ref (2)): 8.1 µM
MIC, Sa ([5]; ref (2)): 16.2 µM

SAAP-148
LC99.9 ([9]; 50% pooled plasma): 12.8 µM
LC99.9 ([9]; PBS): 1.6 µM

WRKWRKRWWWRKWRKRWW [ApoEp-W, ApoE-derived peptide, locations 141-149+141-149]
MIC, Kp ([8]; ref (4)): <3.3 µM
MIC, Sa ([5]; ref (4)): <3.3 µM

gentamycin [GM]
MIC ([1]; Table 2, agent alone, PDR A. baumannii strain YQ4, unit not in the table, μg/ml): >1,024 μg/ml
FIC with COG1410 [2]: >1

polymyxin B [reference compound]
cell morphology by SEM [10]: cell lysis and release of cell contents
SYTO-9/PI staining of treated cells [11]: red fluorescence
ATP leak (extracellular ATP) [12]: released more ATP compared to untreated cells
increase of MIC after serial passage [13]: 64 fold
cell membrane integrity by TEM [14]: collapse of cell walls in most of the cells
